Assay results reported in US8415507B2 (priority 2010, dated 2013).

Experiments:
[1] = Relative humidity stability at ambient temperature, analyzed by XRPD; format: physicochemical
Source text: Upon completion of the duration allowed, the samples were immediately analyzed by XRPD.

[2] = solution supersaturated with respect to pterostilbene; after three days
Procedure: Solubility and concentration measurements were performed using ultraviolet (UV) spectroscopy on a Spectramax Microplate Reader.
Appropriate dilutions with water were made as necessary to maintain absorbance readings within the standard curve. All experiments were repeated three times to evaluate the standard deviation, while particle size was not controlled for any of the experiments.
Aliquots were centrifuged; supernatant was extracted, and appropriate dilutions were made to maintain absorbance readings within the standard curve. […] All experiments were repeated three times to evaluate the standard deviation, while particle size was not controlled for any of the experiments.

[3] = Lopez-Nicolas 2009; cited from earlier work
[4] = in vivo; cited from earlier work
[5] = format: physicochemical
Procedure: Intrinsic dissolution in 900 mL water at ambient conditions was also attempted. […] Therefore, a concentration vs. time and intrinsic dissolution rate value were unobtainable at these conditions.

Compound: Cn1c(=O)c2c(ncn2C)n(C)c1=O [caffeine, reference compound]
- Conversion to hydrate at 75% RH ([1]; 75% RH, up to four weeks): does not display signs of conversion
- Time of partial conversion to hydrate at 94% RH ([1]; 94% RH): between one and three days
- Time of conversion to hydrate at 98% RH ([1]; 98% RH): less than one day

Compound: COc1cc(/C=C/c2ccc(O)cc2)cc(OC)c1.Cn1c(=O)c2c(ncn2C)n(C)c1=O [cocrystal 1 (Form I), pterostilbene:caffeine]
- Results (form by XRPD) ([1]; additional stress at 98% RH, 1 week (listed after 75% RH, 1 week)): cocrystal 1 (Form I), no caffeine hydrate
- Results (form by XRPD) ([1]; additional stress at 98% RH, 4 weeks (listed after 94% RH, 7 days)): cocrystal 1 (Form I), no caffeine hydrate
- Results (form by XRPD) ([1]; additional stress at 98% RH, 1 day (listed after 75% RH, 1 day)): cocrystal 1 (Form I), no caffeine hydrate
- Results (form by XRPD) ([1]; slurry, 2 days): cocrystal 1 (Form I), no caffeine hydrate
- Outcome of slurrying in water [2]: precipitation of pterostilbene

Compound: COc1cc(/C=C/c2ccc(O)cc2)cc(OC)c1 [pterostilbene, trans-3,5-dimethoxy-4′-hydroxystilbene]
- Solubility in water [3]: poor solubility in water
- Bioavailability [4]: poor bioavailability

Compound: pterostilbene:glutaric acid [cocrystal 3]
- XRPD result in intrinsic dissolution ([5]; 900 mL water at ambient conditions, after 30 minutes): crystalline pterostilbene
- XRPD result in powder dissolution ([5]; slurrying in water at ambient, after 5 minutes): crystalline pterostilbene
